Measured values from patent US12685312B2, “Sulfonamide apyrase inhibitors” (Texas Crop Science, Inc., priority 2022, dated 2026).

Test system: apyrase
Test: Screen for apyrase inhibitors (Method 1, in vitro phosphate-release absorbance assay)
Type: biochemical
Conditions: inhibitor conc at 1 mM stock, 1 hr room temperature, absorbance 630 nm; rounded average of two assay results
How it was run: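 Phosphate-release colorimetric assay (Windsor method) in 60 mM Hepes, 3 mM MgCl2, 3 mM CaCl2, 3 mM ATP, pH 6.5, with compound or DMSO control added. Released phosphate developed with ammonium molybdate and ascorbic acid/TCA, then stopped with citrate/acetic acid.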

% Inhibition of Apyrase | Compound
63% | O=C(Nc1ccccc1F)c1cccc(S(=O)(=O)Nc2ccc3c(c2)OCO3)c1 [I-249, 3-(N-(benzo[d][1,3]dioxol-5-yl)sulfamoyl)-N-(2-fluorophenyl)benzamide]
63% | O=C(Nc1ccc(Br)cc1)c1cccc(S(=O)(=O)Nc2cccc(C(F)(F)F)c2)c1 [I-250, N-(4-bromophenyl)-3-(N-(3-(trifluoromethyl)phenyl)sulfamoyl)benzamide]
62% | COc1ccc([N+](=O)[O-])cc1NC(=O)c1cccc(S(=O)(=O)Nc2cc(C(F)(F)F)ccc2Cl)c1 [I-251, 3-(N-(2-chloro-5-(trifluoromethyl)phenyl)sulfamoyl)-N-(2-methoxy-5-nitrophenyl)benzamide]
62% | Cc1ccc(F)c(NC(=O)c2cccc(S(=O)(=O)Nc3ccc4c(c3)OCO4)c2)c1 [I-252, 3-(N-(benzo[d][1,3]dioxol-5-yl)sulfamoyl)-N-(2-fluoro-5-methylphenyl)benzamide]
61% | COc1cccc(NC(=O)c2cccc(S(=O)(=O)Nc3ccc4c(c3)OCO4)c2)c1 [I-253, 3-(N-(benzo[d][1,3]dioxol-5-yl)sulfamoyl)-N-(3-methoxyphenyl)benzamide]
61% | COc1ccc([N+](=O)[O-])cc1NC(=O)c1cccc(S(=O)(=O)Nc2ccc(Cl)cc2)c1 [I-254, 3-(N-(4-chlorophenyl)sulfamoyl)-N-(2-methoxy-5-nitrophenyl)benzamide]
61% | O=C(Nc1ccc(N2CCOCC2)cc1)c1cccc(S(=O)(=O)Nc2ccc(Br)cc2)c1 [I-255, 3-(N-(4-bromophenyl)sulfamoyl)-N-(4-morpholinophenyl)benzamide]
61% | Cc1nc2cc(NC(=O)c3cccc(S(=O)(=O)Nc4ccc(Br)cc4)c3)ccc2o1 [I-256, 3-(N-(4-bromophenyl)sulfamoyl)-N-(2-methylbenzo[d]oxazol-5-yl)benzamide]
61% | COc1cc(NC(=O)c2cccc(S(=O)(=O)Nc3ccc4c(c3)OCO4)c2)cc(OC)c1 [I-257, 3-(N-(benzo[d][1,3]dioxol-5-yl)sulfamoyl)-N-(3,5-dimethoxyphenyl)benzamide]
61% | O=C(Nc1ccc2c(c1)OCCCO2)c1cccc(S(=O)(=O)Nc2ccc3c(c2)OCO3)c1 [I-258, 3-(N-(benzo[d][1,3]dioxol-5-yl)sulfamoyl)-N-(3,4-dihydro-2H-benzo[b][1,4]dioxepin-7-yl)benzamide]
60% | O=C(Nc1ccc(OCC(F)(F)F)cc1)c1cccc(S(=O)(=O)Nc2ccc3c(c2)OCO3)c1 [I-259, 3-(N-(benzo[d][1,3]dioxol-5-yl)sulfamoyl)-N-(4-(2,2,2-trifluoroethoxy)phenyl)benzamide]
60% | O=C(NCC1(c2ccc(Br)cc2)CCOCC1)c1cccc(S(=O)(=O)Nc2ccc(Br)cc2)c1 [I-260, 3-(N-(4-bromophenyl)sulfamoyl)-N-((4-(4-bromophenyl)tetrahydro-2H-pyran-4-yl)methyl)benzamide]
60% | Cc1nc2ccc(NC(=O)c3cccc(S(=O)(=O)Nc4ccc5c(c4)OCO5)c3)cc2s1 [I-261, 3-(N-(benzo[d][1,3]dioxol-5-yl)sulfamoyl)-N-(2-methylbenzo[d]thiazol-6-yl)benzamide]
59% | O=C(c1cccc(S(=O)(=O)Nc2ccc(Br)cc2)c1)N1CCc2sccc2C1 [I-262, N-(4-bromophenyl)-3-(4,5,6,7-tetrahydrothieno[3,2-c]pyridine-5-carbonyl)benzenesulfonamide]
59% | COc1ccc([N+](=O)[O-])cc1NC(=O)c1cccc(S(=O)(=O)N2CCc3ccccc32)c1 [I-263, 3-(indolin-1-ylsulfonyl)-N-(2-methoxy-5-nitrophenyl)benzamide]
59% | O=C(Nc1ccccc1)c1cccc(S(=O)(=O)Nc2ccc3c(c2)OCO3)c1 [I-264, 3-(N-(benzo[d][1,3]dioxol-5-yl)sulfamoyl)-N-phenylbenzamide]
58% | O=C(Nc1cccc(F)c1)c1cccc(S(=O)(=O)Nc2ccc3c(c2)OCO3)c1 [I-265, 3-(N-(benzo[d][1,3]dioxol-5-yl)sulfamoyl)-N-(3-fluorophenyl)benzamide]
58% | COc1ccccc1NS(=O)(=O)c1cccc(C(=O)Nc2cccc(C(F)(F)F)c2)c1 [I-266, 3-(N-(2-methoxyphenyl)sulfamoyl)-N-(3-(trifluoromethyl)phenyl)benzamide]
58% | COc1ccc(N(C)S(=O)(=O)c2cccc(C(=O)Nc3ccc(Br)cc3)c2)cc1 [I-267, N-(4-bromophenyl)-3-(N-(4-methoxyphenyl)-N-methylsulfamoyl)benzamide]
58% | COc1ccccc1NS(=O)(=O)c1cccc(C(=O)Nc2cccc([N+](=O)[O-])c2)c1 [I-268, 3-(N-(2-methoxyphenyl)sulfamoyl)-N-(3-nitrophenyl)benzamide]

% Inhibition of Apyrase | Compound
57% | COC(=O)C1(c2ccc(Br)cc2)CCN(C(=O)c2cccc(S(=O)(=O)Nc3ccc(Br)cc3)c2)C1 (centres unmarked) [I-269, methyl 3-(4-bromophenyl)-1-(3-(N-(4-bromophenyl)sulfamoyl)benzoyl)pyrrolidine-3-carboxylate]
57% | Cc1cccc(NC(=O)c2cccc(S(=O)(=O)Nc3ccc4c(c3)OCO4)c2)c1 [I-270, 3-(N-(benzo[d][1,3]dioxol-5-yl)sulfamoyl)-N-(m-tolyl)benzamide]
56% | COc1ccc([N+](=O)[O-])cc1NC(=O)c1cccc(S(=O)(=O)N2c3ccccc3CC2C)c1 (centres unmarked) [I-271, N-(2-methoxy-5-nitrophenyl)-3-((2-methylindolin-1-yl)sulfonyl)benzamide]
52% | Cn1cc(O)nc1NC(=O)c1cccc(S(=O)(=O)Nc2ccc(Br)cc2)c1 [I-272, 3-(N-(4-bromophenyl)sulfamoyl)-N-(4-hydroxy-1-methyl-1H-imidazol-2-yl)benzamide]
52% | Cc1ccc(NC(=O)c2cccc(S(=O)(=O)Nc3ccc(Br)cc3)c2)cc1S(=O)(=O)N1CCOCC1 [I-273, 3-(N-(4-bromophenyl)sulfamoyl)-N-(4-methyl-3-(morpholinosulfonyl)phenyl)benzamide]
48% | N#CCc1ccc(NC(=O)c2cccc(S(=O)(=O)Nc3ccc4c(c3)OCO4)c2)cc1 [I-274, 3-(N-(benzo[d][1,3]dioxol-5-yl)sulfamoyl)-N-(4-(cyanomethyl)phenyl)benzamide]
44% | COc1ccc(NC(=O)c2cccc(S(=O)(=O)Nc3ccc4c(c3)OCO4)c2)cc1 [I-276, 3-(N-(benzo[d][1,3]dioxol-5-yl)sulfamoyl)-N-(4-methoxyphenyl)benzamide]
44% | COc1ccc(NC(=O)c2cccc(S(=O)(=O)Nc3ccc4c(c3)OCO4)c2)cc1OC [I-277, 3-(N-(benzo[d][1,3]dioxol-5-yl)sulfamoyl)-N-(3,4-dimethoxyphenyl)benzamide]
43% | COc1ccc(NS(=O)(=O)c2cccc(C(=O)Nc3ccc(Br)cc3)c2)cc1 [I-278, N-(4-bromophenyl)-3-(N-(4-methoxyphenyl)sulfamoyl)benzamide]
42% | COc1ccc(C(CNC(=O)c2cccc(S(=O)(=O)Nc3ccc(Br)cc3)c2)N(C)C)cc1 (centres unmarked) [I-279, 3-(N-(4-bromophenyl)sulfamoyl)-N-(2-(dimethylamino)-2-(4-methoxyphenyl)ethyl)benzamide]
40% | COc1ccc(NC(=O)c2cccc(S(=O)(=O)Nc3ccc(Br)cc3)c2)cn1 [I-280, 3-(N-(4-bromophenyl)sulfamoyl)-N-(6-methoxypyridin-3-yl)benzamide]
39% | O=C(NCC(=O)N1CCCCC1)c1cccc(S(=O)(=O)Nc2ccc(Br)cc2)c1 [I-281, 3-(N-(4-bromophenyl)sulfamoyl)-N-(2-oxo-2-(piperidin-1-yl)ethyl)benzamide]
34% | NC(=O)C1CCCN(C(=O)c2cccc(S(=O)(=O)Nc3ccc(Br)cc3)c2)C1 (centres unmarked) [I-282, 1-(3-(N-(4-bromophenyl)sulfamoyl)benzoyl)piperidine-3-carboxamide]
29% | O=C(Nc1ccc(N2CCOCC2)cc1)c1cccc(S(=O)(=O)Nc2ccc3c(c2)OCO3)c1 [I-283, 3-(N-(benzo[d][1,3]dioxol-5-yl)sulfamoyl)-N-(4-morpholinophenyl)benzamide]
27% | O=C(NCCCN1CCOCC1)c1cccc(S(=O)(=O)Nc2ccc(Br)cc2)c1 [I-284, 3-(N-(4-bromophenyl)sulfamoyl)-N-(3-morpholinopropyl)benzamide]
17% | O=C(Nc1cccc(C(F)(F)F)c1)c1cccc(S(=O)(=O)Nc2ccccc2F)c1 [I-285, 3-(N-(2-fluorophenyl)sulfamoyl)-N-(3-(trifluoromethyl)phenyl)benzamide]
13% | O=C(NCCCCO)c1cccc(S(=O)(=O)Nc2ccc(Br)cc2)c1 [I-286, 3-(N-(4-bromophenyl)sulfamoyl)-N-(4-hydroxybutyl)benzamide]
11% | CCCNC(=O)CN(CCC)C(=O)c1cccc(S(=O)(=O)Nc2ccc(Br)cc2)c1 [I-287, 3-(N-(4-bromophenyl)sulfamoyl)-N-(2-oxo-2-(propylamino)ethyl)-N-propylbenzamide]
69% | N#Cc1cccc(NC(=O)c2cccc(NS(=O)(=O)c3ccc(Cl)c(Cl)c3)c2)c1 [I-316, N-(3-cyanophenyl)-3-((3,4-dichlorophenyl)sulfonamido)benzamide]
68% | Cc1ccc(F)cc1S(=O)(=O)Nc1cccc(C(=O)Nc2cccc(C#N)c2)c1 [I-318, N-(3-cyanophenyl)-3-((5-fluoro-2-methylphenyl)sulfonamido)benzamide]

Compound | % Inhibition of Apyrase
COc1ccc([N+](=O)[O-])cc1NS(=O)(=O)c1cccc(C(=O)Nc2ccc(F)c([N+](=O)[O-])c2)c1 [I-275, N-(4-fluoro-3-nitrophenyl)-3-(N-(2-methoxy-5-nitrophenyl)sulfamoyl)benzamide] | 46%
